The source made the active and inactive calls. The rule behind the calls is not given here. Non-standard residues stand in square brackets, D forms with d. Residues, ends and D or L forms follow the SMILES beside them. *: point of attachment. X1 = [N-]=[N+]=N[C@@H](CCCNC(=N)N)C(=O)*; X2 = [N-]=[N+]=N[C@@H](CCCCN)CC(=O)*; NMeR = CN[C@@H](CCCNC(=N)N)C(=O)O; αMeR = C[C@](N)(CCCNC(=N)N)C(=O)O; Tle = CC(C)(C)[C@H](N)C(=O)O; X3 = C[C@](N)(CCCCN)CC(=O)*; β3hK = NCCCC[C@H](N)CC(=O)O
What was measured:
Rattus norvegicus [1] = assay: Hypothermic activity in Sprague-Dawley rat assessed as decrease in core body temperature at 5 mg/kg, ip at time of maximal body temperature decrease; assay type: functional; settings: route intraperitoneal
Serum [2] = assay: Metabolic stability in rat serum assessed as compound degradation rate at 1 mM by MALDI-TOF mass spectrometry assay; assay type: ADME, cell-free; settings: 1000 µM
[3] = target: T1, Neurotensin receptor type 1 (Homo sapiens, UniProt P30989); assay: Displacement of [125I]I-Tyr(3)NT from human NTR1
[4] = target: T1, Neurotensin receptor type 1; assay: Agonist activity at NTR1 in human HT-29 cells assessed as increase in intracellular calcium concentration by FLIPR assay; assay type: functional, cell-based
[5] = Metabolic stability in human serum assessed as half time of disappearance at 1 mM by MALDI-TOF mass spectrometry assay; assay type: ADME, cell-free; settings: read-out: T50
Serum [6] = assay: Metabolic stability in human serum assessed as compound degradation rate at 1 mM by MALDI-TOF mass spectrometry assay; assay type: ADME, cell-free; settings: 1000 µM
[7] = Metabolic stability in rat serum assessed as half time of disappearance at 1 mM by MALDI-TOF mass spectrometry assay; assay type: ADME, cell-free; settings: read-out: T50
Rattus norvegicus [8] = assay: Hypothermic activity in Sprague-Dawley rat assessed as time duration of maximal body temperature decrease at 5 mg/kg, ip; assay type: functional; settings: route intraperitoneal
[9] = target: T1, Neurotensin receptor type 1; assay: Binding affinity to human NTR1
[10] = target: T1, Neurotensin receptor type 1; assay: Agonist activity at NTR1 in human HT-29 cells assessed as increase in intracellular calcium concentration in presence of NTR1 antagonist SR-48692 by FLIPR assay; assay type: functional, cell-based
Rattus norvegicus [11] = assay: Hypothermic activity in Sprague-Dawley rat assessed as decrease in core body temperature at 5 mg/kg, ip measured up to 150 mins; assay type: functional, organism-based; parameters: dose 5 mg/kg

T1 sequence (P30989 whole entry): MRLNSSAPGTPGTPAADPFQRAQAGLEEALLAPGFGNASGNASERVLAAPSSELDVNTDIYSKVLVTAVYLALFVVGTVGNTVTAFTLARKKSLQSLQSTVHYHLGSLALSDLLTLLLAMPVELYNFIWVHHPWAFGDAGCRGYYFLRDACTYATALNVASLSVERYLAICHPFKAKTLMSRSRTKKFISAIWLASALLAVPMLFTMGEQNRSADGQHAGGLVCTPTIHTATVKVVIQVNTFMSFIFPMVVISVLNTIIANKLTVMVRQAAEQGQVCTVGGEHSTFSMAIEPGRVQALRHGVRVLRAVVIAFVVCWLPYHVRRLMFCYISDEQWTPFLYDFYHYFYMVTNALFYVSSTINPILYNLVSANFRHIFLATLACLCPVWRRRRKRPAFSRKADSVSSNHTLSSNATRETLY

Compound | Activity (Rattus norvegicus [1]) [°C] | Activity (Serum [2]) [µmol/min] | IC50 [3] [nM] | Ki [3] [nM] | EC50 [4] [nM] | half-life at 1000 µM [5] [days] | Activity (Serum [6]) [µmol/min] | half-life at 1000 µM [7] [days] | Time (Rattus norvegicus [8]) [min] | Ki [9] [nM] | Activity [10] | Activity (Rattus norvegicus [11])
CC(C)C[C@H](NC(=O)[C@@H](NC(=O)[C@H](Cc1ccc(O)cc1)NC(=O)[C@@H]1CCCN1C(=O)[C@H](CCCNC(=N)N)NC(=O)C[C@@](C)(N)CCCCN)C(C)(C)C)C(=O)O (X3-RPY[Tle]L-OH) | -2.13 | 0.166 | 13.9 | 10.4 | 6.44 | 1.78 | 0.194 | 2.07 | 150 | 9.9 | – | –
CC(C)C[C@H](NC(=O)[C@@H](NC(=O)[C@H](Cc1ccc(O)cc1)NC(=O)[C@@H]1CCCN1C(=O)[C@H](CCCNC(=N)N)NC(=O)C[C@H](CCCCN)N=[N+]=[N-])C(C)(C)C)C(=O)O (X2-RPY[Tle]L-OH) | -2.57 | 0.16 | 7.32 | 5.49 | 7.28 | 2.61 | 0.133 | 2.17 | 120 | 4.5 | – | –
CN[C@@H](CCCNC(=N)N)C(=O)N[C@@H](CCCCN)C(=O)N1CCC[C@H]1C(=O)N[C@@H](Cc1c[nH]c2ccccc12)C(=O)N[C@H](C(=O)N[C@@H](CC(C)C)C(=O)O)C(C)(C)C (H-[NMeR]KPW[Tle]L-OH) | -5.52 | 0.052 | 240 | 180 | 200 | 5.13 | 0.068 | 6.77 | 270 | 95 | – | –
CC[C@@H](C)[C@H](NC(=O)[C@H](Cc1ccc(O)cc1)NC(=O)[C@@H]1CCCN1C(=O)[C@H](CCCNC(=N)N)NC(=O)[C@H](CCCNC(=N)N)N=[N+]=[N-])C(=O)N[C@@H](CC(C)C)C(=O)O | -1 | – | – | – | – | – | – | – | 240 | – | inactive | –
CC(C)C[C@H](NC(=O)[C@@H](NC(=O)[C@H](Cc1ccc(O)cc1)NC(=O)[C@@H]1CCCN1C(=O)[C@H](CCCNC(=N)N)NC(=O)C[C@@H](N)CCCCN)C(C)(C)C)C(=O)O (H-[β3hK]RPY[Tle]L-OH) | -1.53 | 39.9 | 10.8 | 8.07 | 6.21 | 0.0104 | 33.4 | 0.00875 | 90 | – | inactive | –
CC(C)C[C@H](NC(=O)[C@@H](NC(=O)[C@H](Cc1c[nH]c2ccccc12)NC(=O)[C@@H]1CCCN1C(=O)[C@H](CCCCN)NC(=O)[C@H](CCCNC(=N)N)N=[N+]=[N-])C(C)(C)C)C(=O)O (X1-KPW[Tle]L-OH) | -4.29 | 0.123 | 140 | 105 | 151 | 5.01 | 0.07 | 2.83 | 240 | – | inactive | –
O=C(CCCN1CCC(O)(c2ccc(Cl)cc2)CC1)c1ccc(F)cc1 [HALOPERIDOL] | -1.34 | – | – | – | – | – | – | – | 90 | – | – | Active
CC(C)C[C@H](NC(=O)[C@@H](NC(=O)[C@H](Cc1c[nH]c2ccccc12)NC(=O)[C@@H]1CCCN1C(=O)[C@H](CCCCN)NC(=O)[C@@](C)(N)CCCNC(=N)N)C(C)(C)C)C(=O)O (H-[αMeR]KPW[Tle]L-OH) | -4.28 | 0.095 | 2900 | 2170 | 1860 | 5.51 | 0.064 | 3.66 | 120 | – | – | –

— ChEMBL document CHEMBL1153387 (J Med Chem, 2009)
